Here are results for eight molecules from US20090299044A1 (priority 2006, published 2009).

The target of one experiment is T1, human Kv1.1 (HEK293) (Homo sapiens, UniProt Q09470).
T1 construct: expressed in transfected cells; host or cells: HEK293
Kind of experiment: cell-based.

A further experiment has as its target T2, human Kv1.3 (CHO) (Homo sapiens, UniProt P22001).
T2 construct: expressed in transfected cells; host or cells: CHO
Kind of experiment: cell-based.

pIC50: −log10 of the molar value. Bridge positions count the residues as written; N and C are the ends. Square brackets hold non-standard residues; d marks the D form. Peptide text beside a SMILES is read from it. 1Nal = N[C@@H](Cc1cccc2ccccc12)C(=O)O

T1 sequence (Q09470 whole entry): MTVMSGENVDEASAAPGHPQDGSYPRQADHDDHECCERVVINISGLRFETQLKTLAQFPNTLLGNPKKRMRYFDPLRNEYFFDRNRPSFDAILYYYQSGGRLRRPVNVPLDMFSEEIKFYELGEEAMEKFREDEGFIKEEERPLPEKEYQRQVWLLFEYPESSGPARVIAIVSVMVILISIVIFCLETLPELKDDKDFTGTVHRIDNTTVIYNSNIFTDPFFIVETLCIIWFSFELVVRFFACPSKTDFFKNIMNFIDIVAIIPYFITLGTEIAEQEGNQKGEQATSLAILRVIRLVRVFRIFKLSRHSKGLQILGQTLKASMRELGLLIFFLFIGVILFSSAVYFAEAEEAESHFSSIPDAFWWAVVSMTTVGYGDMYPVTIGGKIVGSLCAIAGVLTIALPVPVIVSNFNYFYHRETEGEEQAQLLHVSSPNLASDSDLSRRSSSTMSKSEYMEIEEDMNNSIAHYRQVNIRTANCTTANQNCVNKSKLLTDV
T2 sequence (P22001 whole entry): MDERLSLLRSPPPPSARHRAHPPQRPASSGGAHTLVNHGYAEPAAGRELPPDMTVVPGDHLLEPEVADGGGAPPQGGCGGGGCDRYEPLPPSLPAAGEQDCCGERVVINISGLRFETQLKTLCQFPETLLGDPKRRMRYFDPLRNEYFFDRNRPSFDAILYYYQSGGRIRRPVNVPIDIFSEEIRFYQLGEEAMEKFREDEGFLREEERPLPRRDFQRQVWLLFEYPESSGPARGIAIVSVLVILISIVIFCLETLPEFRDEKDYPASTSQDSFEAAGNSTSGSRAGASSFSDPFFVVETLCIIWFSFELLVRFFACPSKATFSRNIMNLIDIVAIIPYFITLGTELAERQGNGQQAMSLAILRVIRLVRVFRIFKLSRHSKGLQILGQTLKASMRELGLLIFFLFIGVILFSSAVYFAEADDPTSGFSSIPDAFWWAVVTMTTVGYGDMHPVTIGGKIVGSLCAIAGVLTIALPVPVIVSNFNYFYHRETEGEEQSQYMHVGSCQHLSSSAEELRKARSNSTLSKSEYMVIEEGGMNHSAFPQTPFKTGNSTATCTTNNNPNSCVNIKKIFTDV

In the case of `CC[C@H](C)[C@@H]1NC(=O)[C@H](CCCCN)NC(=O)[C@@H](NC(=O)[C@H](CCCCN)NC(=O)[C@@H](NC(=O)[C@H](CC(N)=O)NC(=O)[C@@H](NC(=O)[C@H](CCCNC(=N)N)NC(=O)[C@@H](NC(=O)CN)C(C)C)[C@@H](C)CC)C(C)C)CSSC[C@@H]2NC(=O)[C@H](CCCCN)NC(=O)CNC(=O)[C@H](Cc3ccccc3)NC(=O)[C@H](CCCNC(=N)N)NC(=O)[C@H](CCSC)NC(=O)CNC(=O)[C@H](C)NC(=O)[C@H](CCCCN)NC(=O)[C@H](CCCCN)NC(=O)[C@@H]3CSSC[C@@H](C(=O)N[C@H](C(=O)N4CCC[C@H]4C(=O)N[C@@H](CCCCN)C(=O)O)[C@@H](C)O)NC(=O)[C@H](Cc4c[nH]cn4)NC(=O)[C@H](CSSC[C@H](NC(=O)[C@H](CCC(N)=O)NC(=O)[C@H](CCCNC(=N)N)NC(=O)[C@H](CO)NC1=O)C(=O)N[C@@H](CC(C)C)C(=O)N[C@@H](CCC(=O)O)C(=O)N1CCC[C@H]1C(=O)N3)NC(=O)[C@H](CCCCN)NC(=O)CNC(=O)[C@H](CC(N)=O)NC(=O)[C@H](CCSC)NC2=O` [I3R] (H-GVRINVKCKISRQCLEPCKKAGMRFGKCMNGKCHCTPK-OH; disulfide 8-28, 14-33, 18-35), the pIC50 against human Kv1.1 (HEK293) was 11.61; against human Kv1.3 (CHO), 10.70.

Take `CC[C@H](C)[C@@H]1NC(=O)[C@H](CCCCN)NC(=O)[C@@H](NC(=O)[C@H](CCCCN)NC(=O)[C@@H](NC(=O)[C@H](CC(N)=O)NC(=O)[C@H](C)NC(=O)[C@@H](NC(=O)[C@@H](NC(=O)CN)C(C)C)[C@@H](C)CC)C(C)C)CSSC[C@@H]2NC(=O)[C@H](CCCCN)NC(=O)CNC(=O)[C@H](Cc3ccccc3)NC(=O)[C@H](CCCNC(=N)N)NC(=O)[C@H](CCSC)NC(=O)CNC(=O)[C@H](C)NC(=O)[C@H](CCCCN)NC(=O)[C@H](CCCCN)NC(=O)[C@@H]3CSSC[C@@H](C(=O)N[C@H](C(=O)N4CCC[C@H]4C(=O)N[C@@H](CCCCN)C(=O)O)[C@@H](C)O)NC(=O)[C@H](Cc4c[nH]cn4)NC(=O)[C@H](CSSC[C@H](NC(=O)[C@H](CCC(N)=O)NC(=O)[C@H](CCCNC(=N)N)NC(=O)[C@H](CO)NC1=O)C(=O)N[C@@H](CC(C)C)C(=O)N[C@@H](CCC(=O)O)C(=O)N1CCC[C@H]1C(=O)N3)NC(=O)[C@H](CCCCN)NC(=O)CNC(=O)[C@H](CC(N)=O)NC(=O)[C@H](CCSC)NC2=O` [I4A] (H-GVIANVKCKISRQCLEPCKKAGMRFGKCMNGKCHCTPK-OH; disulfide 8-28, 14-33, 18-35): the pIC50 is 10.77 against human Kv1.1 (HEK293) and 9.71 on human Kv1.3 (CHO).

Consider `CC[C@H](C)[C@@H]1NC(=O)[C@H](CCCCN)NC(=O)[C@@H](NC(=O)[C@H](CCCCN)NC(=O)[C@@H](NC(=O)[C@H](CC(N)=O)NC(=O)[C@H](CCC(=O)O)NC(=O)[C@@H](NC(=O)[C@@H](NC(=O)CN)C(C)C)[C@@H](C)CC)C(C)C)CSSC[C@@H]2NC(=O)[C@H](CCCCN)NC(=O)CNC(=O)[C@H](Cc3ccccc3)NC(=O)[C@H](CCCNC(=N)N)NC(=O)[C@H](CCSC)NC(=O)CNC(=O)[C@H](C)NC(=O)[C@H](CCCCN)NC(=O)[C@H](CCCCN)NC(=O)[C@@H]3CSSC[C@@H](C(=O)N[C@H](C(=O)N4CCC[C@H]4C(=O)N[C@@H](CCCCN)C(=O)O)[C@@H](C)O)NC(=O)[C@H](Cc4c[nH]cn4)NC(=O)[C@H](CSSC[C@H](NC(=O)[C@H](CCC(N)=O)NC(=O)[C@H](CCCNC(=N)N)NC(=O)[C@H](CO)NC1=O)C(=O)N[C@@H](CC(C)C)C(=O)N[C@@H](CCC(=O)O)C(=O)N1CCC[C@H]1C(=O)N3)NC(=O)[C@H](CCCCN)NC(=O)CNC(=O)[C@H](CC(N)=O)NC(=O)[C@H](CCSC)NC2=O` [I4E] (H-GVIENVKCKISRQCLEPCKKAGMRFGKCMNGKCHCTPK-OH; disulfide 8-28, 14-33, 18-35), for which the pIC50 at human Kv1.1 (HEK293) is 11.50; at human Kv1.3 (CHO), 10.81.

As to `CC[C@H](C)[C@@H]1NC(=O)[C@H](CCCCN)NC(=O)[C@@H](NC(=O)[C@H](CCCCN)NC(=O)[C@@H](NC(=O)[C@H](CC(N)=O)NC(=O)[C@H](Cc2cccc3ccccc23)NC(=O)[C@@H](NC(=O)[C@@H](NC(=O)CN)C(C)C)[C@@H](C)CC)C(C)C)CSSC[C@@H]2NC(=O)[C@H](CCCCN)NC(=O)CNC(=O)[C@H](Cc3ccccc3)NC(=O)[C@H](CCCNC(=N)N)NC(=O)[C@H](CCSC)NC(=O)CNC(=O)[C@H](C)NC(=O)[C@H](CCCCN)NC(=O)[C@H](CCCCN)NC(=O)[C@@H]3CSSC[C@@H](C(=O)N[C@H](C(=O)N4CCC[C@H]4C(=O)N[C@@H](CCCCN)C(=O)O)[C@@H](C)O)NC(=O)[C@H](Cc4c[nH]cn4)NC(=O)[C@H](CSSC[C@H](NC(=O)[C@H](CCC(N)=O)NC(=O)[C@H](CCCNC(=N)N)NC(=O)[C@H](CO)NC1=O)C(=O)N[C@@H](CC(C)C)C(=O)N[C@@H](CCC(=O)O)C(=O)N1CCC[C@H]1C(=O)N3)NC(=O)[C@H](CCCCN)NC(=O)CNC(=O)[C@H](CC(N)=O)NC(=O)[C@H](CCSC)NC2=O` [I4Nal] (H-GVI[1Nal]NVKCKISRQCLEPCKKAGMRFGKCMNGKCHCTPK-OH; disulfide 8-28, 14-33, 18-35), the figures for the pIC50 on human Kv1.1 (HEK293) and against human Kv1.3 (CHO) were above 11.82 and 10.82, respectively.

On to `CC[C@H](C)[C@@H]1NC(=O)[C@H](CCCCN)NC(=O)[C@@H](NC(=O)[C@H](CCCCN)NC(=O)[C@@H](NC(=O)[C@H](CC(N)=O)NC(=O)[C@H](CCCNC(=N)N)NC(=O)[C@@H](NC(=O)[C@@H](NC(=O)CN)C(C)C)[C@@H](C)CC)C(C)C)CSSC[C@@H]2NC(=O)[C@H](CCCCN)NC(=O)CNC(=O)[C@H](Cc3ccccc3)NC(=O)[C@H](CCCNC(=N)N)NC(=O)[C@H](CCSC)NC(=O)CNC(=O)[C@H](C)NC(=O)[C@H](CCCCN)NC(=O)[C@H](CCCCN)NC(=O)[C@@H]3CSSC[C@@H](C(=O)N[C@H](C(=O)N4CCC[C@H]4C(=O)N[C@@H](CCCCN)C(=O)O)[C@@H](C)O)NC(=O)[C@H](Cc4c[nH]cn4)NC(=O)[C@H](CSSC[C@H](NC(=O)[C@H](CCC(N)=O)NC(=O)[C@H](CCCNC(=N)N)NC(=O)[C@H](CO)NC1=O)C(=O)N[C@@H](CC(C)C)C(=O)N[C@@H](CCC(=O)O)C(=O)N1CCC[C@H]1C(=O)N3)NC(=O)[C@H](CCCCN)NC(=O)CNC(=O)[C@H](CC(N)=O)NC(=O)[C@H](CCSC)NC2=O` [I4R] (H-GVIRNVKCKISRQCLEPCKKAGMRFGKCMNGKCHCTPK-OH; disulfide 8-28, 14-33, 18-35), for which the pIC50 against human Kv1.1 (HEK293) was 11.72; against human Kv1.3 (CHO) it was 10.98.

As for `CC[C@H](C)[C@H](NC(=O)[C@@H](NC(=O)CN)C(C)C)C(=O)N[C@H](C(=O)N[C@@H](CC(N)=O)C(=O)N[C@H](C(=O)N[C@@H](CCCCN)C(=O)N[C@H]1CSSC[C@@H]2NC(=O)[C@H](CCCCN)NC(=O)CNC(=O)[C@H](Cc3ccccc3)NC(=O)[C@H](CCCNC(=N)N)NC(=O)[C@H](CCSC)NC(=O)CNC(=O)[C@H](C)NC(=O)[C@H](CCCCN)NC(=O)[C@H](CCCCN)NC(=O)[C@@H]3CSSC[C@@H](C(=O)N[C@H](C(=O)N4CCC[C@H]4C(=O)N[C@@H](CCCCN)C(=O)O)[C@@H](C)O)NC(=O)[C@H](Cc4c[nH]cn4)NC(=O)[C@H](CSSC[C@H](NC(=O)[C@H](CCC(N)=O)NC(=O)[C@H](CCCNC(=N)N)NC(=O)[C@H](CO)NC(=O)[C@H](C)NC(=O)[C@H](CCCCN)NC1=O)C(=O)N[C@@H](CC(C)C)C(=O)N[C@@H](CCC(=O)O)C(=O)N1CCC[C@H]1C(=O)N3)NC(=O)[C@H](CCCCN)NC(=O)CNC(=O)[C@H](CC(N)=O)NC(=O)[C@H](CCSC)NC2=O)C(C)C)[C@@H](C)CC` [I10A] (H-GVIINVKCKASRQCLEPCKKAGMRFGKCMNGKCHCTPK-OH; disulfide 8-28, 14-33, 18-35), the pIC50 against human Kv1.1 (HEK293) is 11.35; against human Kv1.3 (CHO) it was 10.04.

With `CC[C@H](C)[C@H](NC(=O)[C@@H](NC(=O)CN)C(C)C)C(=O)N[C@H](C(=O)N[C@@H](CC(N)=O)C(=O)N[C@H](C(=O)N[C@@H](CCCCN)C(=O)N[C@H]1CSSC[C@@H]2NC(=O)[C@H](CCCCN)NC(=O)CNC(=O)[C@H](Cc3ccccc3)NC(=O)[C@H](CCCNC(=N)N)NC(=O)[C@H](CCSC)NC(=O)CNC(=O)[C@H](C)NC(=O)[C@H](CCCCN)NC(=O)[C@H](CCCCN)NC(=O)[C@@H]3CSSC[C@@H](C(=O)N[C@H](C(=O)N4CCC[C@H]4C(=O)N[C@@H](CCCCN)C(=O)O)[C@@H](C)O)NC(=O)[C@H](Cc4c[nH]cn4)NC(=O)[C@H](CSSC[C@H](NC(=O)[C@H](CCC(N)=O)NC(=O)[C@H](CCCNC(=N)N)NC(=O)[C@H](CO)NC(=O)[C@H](CCC(=O)O)NC(=O)[C@H](CCCCN)NC1=O)C(=O)N[C@@H](CC(C)C)C(=O)N[C@@H](CCC(=O)O)C(=O)N1CCC[C@H]1C(=O)N3)NC(=O)[C@H](CCCCN)NC(=O)CNC(=O)[C@H](CC(N)=O)NC(=O)[C@H](CCSC)NC2=O)C(C)C)[C@@H](C)CC` [I10E] (H-GVIINVKCKESRQCLEPCKKAGMRFGKCMNGKCHCTPK-OH; disulfide 8-28, 14-33, 18-35), the results for the pIC50 on human Kv1.1 (HEK293) and on human Kv1.3 (CHO) were 10.47 and 9.92, respectively.

As for `CC[C@H](C)[C@H](NC(=O)[C@@H](NC(=O)CN)C(C)C)C(=O)N[C@H](C(=O)N[C@@H](CC(N)=O)C(=O)N[C@H](C(=O)N[C@@H](CCCCN)C(=O)N[C@H]1CSSC[C@@H]2NC(=O)[C@H](CCCCN)NC(=O)CNC(=O)[C@H](Cc3ccccc3)NC(=O)[C@H](CCCNC(=N)N)NC(=O)[C@H](CCSC)NC(=O)CNC(=O)[C@H](C)NC(=O)[C@H](CCCCN)NC(=O)[C@H](CCCCN)NC(=O)[C@@H]3CSSC[C@@H](C(=O)N[C@H](C(=O)N4CCC[C@H]4C(=O)N[C@@H](CCCCN)C(=O)O)[C@@H](C)O)NC(=O)[C@H](Cc4c[nH]cn4)NC(=O)[C@H](CSSC[C@H](NC(=O)[C@H](CCC(N)=O)NC(=O)[C@H](CCCNC(=N)N)NC(=O)[C@H](CO)NC(=O)[C@H](CCCNC(=N)N)NC(=O)[C@H](CCCCN)NC1=O)C(=O)N[C@@H](CC(C)C)C(=O)N[C@@H](CCC(=O)O)C(=O)N1CCC[C@H]1C(=O)N3)NC(=O)[C@H](CCCCN)NC(=O)CNC(=O)[C@H](CC(N)=O)NC(=O)[C@H](CCSC)NC2=O)C(C)C)[C@@H](C)CC` [I10R] (H-GVIINVKCKRSRQCLEPCKKAGMRFGKCMNGKCHCTPK-OH; disulfide 8-28, 14-33, 18-35), the negative-log IC50 (pIC50) against human Kv1.1 (HEK293) is 11.76; on human Kv1.3 (CHO) it was 10.93.
